# Measurements taken from ChEMBL document CHEMBL4706546, “Sulfoximines as Rising Stars in Modern Drug Discovery? Current Status and Perspective on an Emerging Functional Group in Medicinal Chemistry” (J Med Chem, 2020).
# Columns and labels:
# in vitro [1] = settings: human, Caco-2
# Description: Apparent permeability across apical to basolateral side in human Caco2 cells at 2 uM measured after 2 hrs by LC-MS/MS analysis
# A-375 = assay: cells; format: functional; settings: Homo sapiens, time 72 hrs
# Description: Antiproliferative activity against human A375 cells assessed as cell proliferation at 25 uM after 72 hrs by alamarBlue cell proliferation assay relative to control
# Rattus norvegicus [2] = species: Rattus norvegicus; assay: animal or person; format: functional; settings: iv, 0.5 min, time 30 sec
# Description: Antiallergic activity in iv dosed rat model of IgE-mediated passive cutaneous anaphylaxis administered 30 secs prior to IgE challenge
# Carbonic anhydrase 2 = Carbonic anhydrase 2 (Homo sapiens, UniProt P00918); format: ADME
# Description: Inhibition of human carbonic anhydrase 2 using 4-nitrophenyl acetate as substrate by spectrophotometry
# physchem [3] = settings: buffer
# Description: Thermodynamic solubility in water by equilibrium shake-flask method
# [4] = molecular target: Vascular endothelial growth factor receptor 2 (Homo sapiens, UniProt P35968); format: cell-based, Sf9
# Chain of Vascular endothelial growth factor receptor 2 (P35968 whole entry): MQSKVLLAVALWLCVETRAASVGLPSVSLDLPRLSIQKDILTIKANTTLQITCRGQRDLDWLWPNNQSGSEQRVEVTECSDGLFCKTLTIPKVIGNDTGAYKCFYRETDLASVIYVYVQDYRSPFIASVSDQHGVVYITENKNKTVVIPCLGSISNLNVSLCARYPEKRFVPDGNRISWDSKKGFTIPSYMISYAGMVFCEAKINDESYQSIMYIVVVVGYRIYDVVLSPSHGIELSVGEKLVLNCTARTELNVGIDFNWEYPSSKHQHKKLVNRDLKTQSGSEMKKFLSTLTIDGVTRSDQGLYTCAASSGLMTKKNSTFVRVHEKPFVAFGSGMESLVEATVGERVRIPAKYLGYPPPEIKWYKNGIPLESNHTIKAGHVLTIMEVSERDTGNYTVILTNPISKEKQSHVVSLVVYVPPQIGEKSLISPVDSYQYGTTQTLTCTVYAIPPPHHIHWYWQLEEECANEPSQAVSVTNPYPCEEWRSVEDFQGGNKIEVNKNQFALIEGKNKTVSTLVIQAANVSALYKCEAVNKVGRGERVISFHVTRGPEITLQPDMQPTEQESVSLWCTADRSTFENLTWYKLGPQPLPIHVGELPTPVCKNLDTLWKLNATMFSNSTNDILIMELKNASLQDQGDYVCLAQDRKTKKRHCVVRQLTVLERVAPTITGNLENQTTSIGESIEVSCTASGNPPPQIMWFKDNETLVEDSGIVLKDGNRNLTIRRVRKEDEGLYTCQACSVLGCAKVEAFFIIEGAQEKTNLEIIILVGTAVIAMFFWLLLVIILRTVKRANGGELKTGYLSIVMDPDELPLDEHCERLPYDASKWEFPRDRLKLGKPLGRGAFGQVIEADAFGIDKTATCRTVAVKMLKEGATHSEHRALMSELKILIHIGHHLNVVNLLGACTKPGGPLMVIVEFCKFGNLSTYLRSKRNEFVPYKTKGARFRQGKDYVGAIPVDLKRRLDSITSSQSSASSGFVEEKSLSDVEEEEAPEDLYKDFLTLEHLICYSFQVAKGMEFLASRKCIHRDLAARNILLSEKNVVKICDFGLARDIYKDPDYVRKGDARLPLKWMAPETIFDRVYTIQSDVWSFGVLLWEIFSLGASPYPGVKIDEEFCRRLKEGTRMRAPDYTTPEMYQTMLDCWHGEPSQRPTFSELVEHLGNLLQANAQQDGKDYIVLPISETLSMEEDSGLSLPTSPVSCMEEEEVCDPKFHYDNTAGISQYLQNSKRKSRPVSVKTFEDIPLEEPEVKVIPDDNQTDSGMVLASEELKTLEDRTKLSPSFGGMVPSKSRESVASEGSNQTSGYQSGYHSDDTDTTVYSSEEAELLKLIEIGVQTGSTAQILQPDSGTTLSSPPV
# physchem [5] = settings: in vivo, pH 7.4
# Dipeptidyl peptidase 4 = Dipeptidyl peptidase 4 (Homo sapiens, UniProt P27487)
# Chain of Dipeptidyl peptidase 4 (P27487 whole entry): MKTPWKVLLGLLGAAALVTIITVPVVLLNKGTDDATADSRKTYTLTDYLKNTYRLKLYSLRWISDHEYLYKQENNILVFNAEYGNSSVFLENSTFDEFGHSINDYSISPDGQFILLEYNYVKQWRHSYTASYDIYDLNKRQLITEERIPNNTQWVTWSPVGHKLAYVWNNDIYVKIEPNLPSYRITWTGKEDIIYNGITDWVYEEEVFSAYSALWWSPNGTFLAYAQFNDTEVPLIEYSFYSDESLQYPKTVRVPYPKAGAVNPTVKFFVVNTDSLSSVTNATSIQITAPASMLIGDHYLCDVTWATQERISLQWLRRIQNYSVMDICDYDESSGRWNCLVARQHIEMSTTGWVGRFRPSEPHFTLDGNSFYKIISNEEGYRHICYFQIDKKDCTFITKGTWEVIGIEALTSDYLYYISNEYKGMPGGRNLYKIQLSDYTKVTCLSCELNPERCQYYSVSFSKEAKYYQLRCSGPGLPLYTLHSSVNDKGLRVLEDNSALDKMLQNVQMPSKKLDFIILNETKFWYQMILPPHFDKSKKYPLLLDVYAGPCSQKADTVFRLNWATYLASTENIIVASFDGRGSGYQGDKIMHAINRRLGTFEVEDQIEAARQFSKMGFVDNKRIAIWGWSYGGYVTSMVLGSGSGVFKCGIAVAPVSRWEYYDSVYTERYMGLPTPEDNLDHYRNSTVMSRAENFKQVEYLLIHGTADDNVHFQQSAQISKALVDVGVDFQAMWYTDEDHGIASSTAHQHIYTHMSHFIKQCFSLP
# Description: Inhibition of human DPP4 expressed in baculovirus expression system using Gly-Pro-AMC as substrate by fluorometric assay
# Plasmodium falciparum [6] = assay: microbe, parasite or virus in culture; format: functional, organism-based; settings: 3D7, Erythrocyte, 48 h
# Description: Antiplasmodial activity against Plasmodium falciparum 3D7 infected in human erythrocytes incubated for 48 hrs by lactate dehydrogenase colorimetric enzyme assay
# [7] = molecular target: Cyclin-dependent kinase 1/cyclin B1 (Homo sapiens, UniProt P06493); format: cell-based, Sf9
# Chain of Cyclin-dependent kinase 1/cyclin B1 (P06493 whole entry): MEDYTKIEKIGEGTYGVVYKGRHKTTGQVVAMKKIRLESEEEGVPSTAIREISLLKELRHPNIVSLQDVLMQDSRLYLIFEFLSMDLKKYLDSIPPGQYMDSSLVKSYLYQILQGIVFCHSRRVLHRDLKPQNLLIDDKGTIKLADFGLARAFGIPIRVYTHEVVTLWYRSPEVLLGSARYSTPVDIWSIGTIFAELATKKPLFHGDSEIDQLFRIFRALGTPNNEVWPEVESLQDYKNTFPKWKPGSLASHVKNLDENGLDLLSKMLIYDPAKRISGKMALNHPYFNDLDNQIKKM
# Chain of Cyclin-dependent kinase 1/cyclin B1 (P14635 whole entry, further chain): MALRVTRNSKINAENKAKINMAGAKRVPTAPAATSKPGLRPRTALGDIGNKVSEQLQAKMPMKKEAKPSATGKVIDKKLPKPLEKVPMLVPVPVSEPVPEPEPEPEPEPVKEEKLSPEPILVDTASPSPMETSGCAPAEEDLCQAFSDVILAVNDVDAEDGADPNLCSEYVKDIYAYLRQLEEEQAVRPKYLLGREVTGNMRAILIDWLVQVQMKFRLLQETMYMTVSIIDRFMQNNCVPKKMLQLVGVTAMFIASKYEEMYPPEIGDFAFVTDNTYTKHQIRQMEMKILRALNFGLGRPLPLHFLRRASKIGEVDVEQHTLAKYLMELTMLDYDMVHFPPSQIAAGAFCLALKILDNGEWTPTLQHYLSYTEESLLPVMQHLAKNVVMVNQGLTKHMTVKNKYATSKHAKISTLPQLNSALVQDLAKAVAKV
# MCF7 = assay: cells; format: functional, cell-based; settings: Homo sapiens, MCF7, 96 h
# Description: Antiproliferative activity against human MCF7 cells incubated for 4 days by crystal violet staining based assay
# [8] = molecular target: T1, Cyclin-dependent kinase 2/cyclin E1 (Homo sapiens, UniProt P24941); format: cell-based, Sf9
# [9] = rat, hepatocytes, 1 µM
# Description: Clearance in rat hepatocytes at 1 uM measured after 2 to 90 mins by HPLC-based LCMS/MS analysis
# [10] = human, hepatocytes, 1 µM
# Description: Clearance in human hepatocytes at 1 uM measured after 2 to 90 mins by HPLC-based LCMS/MS analysis
# [11] = molecular target: cGMP-specific 3',5'-cyclic phosphodiesterase (Homo sapiens, UniProt O76074); format: cell-based; settings: platelet
# Description: Inhibition of human platelets derived PDE5 using [3H]-cGMP as substrate incubated for 60 min by scintillation proximity assay
# in vitro [12] = settings: human, Caco-2; remark: listed apart in the source
# Description: Efflux ratio of apparent permeability across basolateral to apical side over apical to basolateral side in human Caco2 cells
# [13] = molecular target: T1, Cyclin-dependent kinase 2/cyclin E1; format: cell-based, Sf9; remark: listed apart in the source
# Estrogen receptor = molecular target: T2, Estrogen receptor (Homo sapiens, UniProt P03372)
# T2 sequence (P03372 whole entry): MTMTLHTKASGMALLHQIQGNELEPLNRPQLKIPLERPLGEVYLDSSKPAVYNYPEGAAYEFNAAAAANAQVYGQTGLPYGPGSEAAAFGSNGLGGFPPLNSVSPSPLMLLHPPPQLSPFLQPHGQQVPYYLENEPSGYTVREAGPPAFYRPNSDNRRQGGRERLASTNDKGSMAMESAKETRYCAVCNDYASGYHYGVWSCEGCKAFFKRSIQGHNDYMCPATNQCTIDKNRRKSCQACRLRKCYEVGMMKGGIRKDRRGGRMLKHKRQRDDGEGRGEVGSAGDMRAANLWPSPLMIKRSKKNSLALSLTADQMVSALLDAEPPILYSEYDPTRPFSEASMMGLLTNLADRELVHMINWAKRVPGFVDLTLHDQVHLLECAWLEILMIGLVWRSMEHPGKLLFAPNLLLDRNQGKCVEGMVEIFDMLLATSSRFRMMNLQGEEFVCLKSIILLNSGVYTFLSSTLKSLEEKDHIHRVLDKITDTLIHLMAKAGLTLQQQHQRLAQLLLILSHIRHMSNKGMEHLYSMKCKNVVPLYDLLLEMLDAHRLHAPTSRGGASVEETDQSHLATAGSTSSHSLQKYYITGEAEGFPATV
# Description: Inhibition of wild type ESR1 (unknown origin) by transactivation assay
# physchem [14] = settings: in vivo, pH 6.5
# Plasmodium falciparum [15] = assay: microbe, parasite or virus in culture; format: functional, organism-based; settings: 3D7
# Description: Antiplasmodial activity against Plasmodium falciparum 3D7
# [16] = molecular target: T3, 1,25-dihydroxyvitamin D(3) 24-hydroxylase, mitochondrial (Homo sapiens, UniProt Q07973); assay: biochemical; format: cell-based, V79
# T3 sequence (Q07973 whole entry): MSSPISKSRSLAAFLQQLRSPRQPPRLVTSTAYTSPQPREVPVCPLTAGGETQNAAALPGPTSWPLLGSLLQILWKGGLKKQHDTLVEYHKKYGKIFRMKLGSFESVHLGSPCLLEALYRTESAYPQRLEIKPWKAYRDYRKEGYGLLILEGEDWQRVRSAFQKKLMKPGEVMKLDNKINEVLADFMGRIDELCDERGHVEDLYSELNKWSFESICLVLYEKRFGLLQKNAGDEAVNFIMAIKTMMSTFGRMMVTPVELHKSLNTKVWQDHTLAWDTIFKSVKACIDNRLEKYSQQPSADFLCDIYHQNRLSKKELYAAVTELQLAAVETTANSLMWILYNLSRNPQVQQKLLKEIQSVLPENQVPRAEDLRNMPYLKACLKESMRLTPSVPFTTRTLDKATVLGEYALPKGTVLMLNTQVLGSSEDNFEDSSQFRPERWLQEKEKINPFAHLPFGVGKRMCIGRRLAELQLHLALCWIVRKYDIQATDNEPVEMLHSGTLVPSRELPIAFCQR
# Beta-secretase 1 = Beta-secretase 1 (Homo sapiens, UniProt P56817); format: cell-based, HEK293
# Chain of Beta-secretase 1 (P56817 whole entry): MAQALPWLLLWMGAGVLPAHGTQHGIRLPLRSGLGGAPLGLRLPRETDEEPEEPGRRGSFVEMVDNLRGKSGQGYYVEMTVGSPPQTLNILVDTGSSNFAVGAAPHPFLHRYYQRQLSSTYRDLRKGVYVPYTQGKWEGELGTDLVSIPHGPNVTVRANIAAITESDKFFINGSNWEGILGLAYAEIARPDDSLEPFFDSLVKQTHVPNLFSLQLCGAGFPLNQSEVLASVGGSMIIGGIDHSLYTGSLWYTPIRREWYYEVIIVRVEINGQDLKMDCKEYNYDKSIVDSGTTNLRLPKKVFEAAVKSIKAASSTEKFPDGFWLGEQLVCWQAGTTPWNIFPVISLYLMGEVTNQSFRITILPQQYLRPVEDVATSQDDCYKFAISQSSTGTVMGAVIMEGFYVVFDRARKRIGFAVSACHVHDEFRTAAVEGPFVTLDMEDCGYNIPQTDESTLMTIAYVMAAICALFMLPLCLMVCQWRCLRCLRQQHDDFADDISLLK
# Description: Inhibition of BACE1 in HEK293 cells harboring APP assessed as reduction in amyloidbeta 40 level measured after 18 to 20 hrs by AlphaLISA Assay
# HeLa = assay: cells; format: functional, cell-based; settings: Homo sapiens, 96 h
# Description: Antiproliferative activity against human HeLa cells incubated for 96 hrs by crystal violet staining assay
# [17] = molecular target: T4, Nuclear receptor ROR-gamma (Homo sapiens, UniProt P51449); format: cell-based, CD4+ve Th
# T4 sequence (P51449 whole entry): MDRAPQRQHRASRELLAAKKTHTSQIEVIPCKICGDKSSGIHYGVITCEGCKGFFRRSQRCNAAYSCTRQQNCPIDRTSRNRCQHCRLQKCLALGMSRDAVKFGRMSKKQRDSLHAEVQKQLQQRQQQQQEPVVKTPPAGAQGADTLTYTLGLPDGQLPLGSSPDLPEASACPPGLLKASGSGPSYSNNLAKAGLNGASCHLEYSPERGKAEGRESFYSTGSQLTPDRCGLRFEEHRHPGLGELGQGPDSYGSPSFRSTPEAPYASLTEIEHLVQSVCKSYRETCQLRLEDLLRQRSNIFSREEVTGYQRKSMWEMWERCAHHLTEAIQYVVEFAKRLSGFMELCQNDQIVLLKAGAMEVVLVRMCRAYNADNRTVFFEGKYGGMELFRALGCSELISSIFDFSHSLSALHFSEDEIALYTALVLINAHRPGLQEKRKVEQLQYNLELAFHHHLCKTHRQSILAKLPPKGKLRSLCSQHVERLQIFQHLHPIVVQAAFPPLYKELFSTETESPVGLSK
# Description: Inverse agonist activity at RORgammat in human CD4-positive T cells assessed as reduction in Th17 level incubated for 5 days by MSD electrochemiluminescent cytokine assay
# Rattus norvegicus [18] = species: Rattus norvegicus; assay: animal or person; format: functional; settings: po, 0.5 h, time 30 min
# Description: Antiallergic activity in po dosed rat model of IgE-mediated passive cutaneous anaphylaxis administered 30 mins prior to IgE challenge
smiles,measurement,setting,value
CCCc1nc(C)c2c(=O)[nH]c(-c3cc(S(=O)(=O)N4CCN(CC)CC4)ccc3OCC)nn12,"Papp A→B at 2 h, 2 µM",in vitro [1],206 ×10⁻⁶ cm/s
O=C(NS(=O)(=O)c1ccc(Br)s1)c1ccc(Cl)cc1Cl,growth at 25 µM,A-375,25%
CS(=N)(=O)c1ccc2oc3ccc(C(=O)O)cc3c(=O)c2c1 (configuration not stated),ED50,Rattus norvegicus [2],0.03 mg/kg
C[C@@H](O)[C@@H](C)Oc1nc(Nc2ccc(S(C)(=O)=O)cc2)ncc1C(F)(F)F,IC50,Carbonic anhydrase 2,> 10000 nM
C[C@@H](O)[C@@H](C)Oc1nc(Nc2ccc([S@](=N)(=O)C3CC3)cc2)ncc1C(F)(F)F,IC50,Carbonic anhydrase 2,> 10000 nM
same,solubility thermodynamic,physchem [3],182 µg/mL
same,IC50,[4],163 nM
COc1cc(F)ccc1-c1ncnc(Nc2cccc(CS(N)(=O)=O)c2)n1,solubility thermodynamic at 24 h,physchem [5],11 µg/mL
N[C@H]1C[C@@H](N2Cc3cn(S(=O)(=O)NC(=O)c4ccccc4)nc3C2)CO[C@@H]1c1cc(F)ccc1F,IC50,Dipeptidyl peptidase 4,8.8 nM
CC(C)(C)c1ccc2c(c1)[C@H]1O[C@H](COCc3ccccc3)[C@@H](OCc3ccccc3)[C@H](OCc3ccccc3)[C@H]1C[S@@]2(=N)=O,IC50,Plasmodium falciparum [6],800 nM
CCS(=N)(=O)c1ccc(Nc2ncc(Br)c(O[C@H](C)[C@@H](C)O)n2)cc1 (some centres not stated),IC50,Carbonic anhydrase 2,> 10000 nM
same,IC50,[7],2 nM
same,IC50,MCF7,44 nM
same,IC50,[4],32 nM
same,IC50,[8],3 nM
N=S1(=O)CCC(NC(=O)c2n[nH]cc2NC(=O)c2c(Cl)cccc2Cl)CC1 (configuration not stated),CLH,[9],1 mL/min/kg
same,CLH,[10],1 mL/min/kg
CN=S1(=O)C[C@@H]2[C@@H](OCc3ccccc3)[C@H](OCc3ccccc3)[C@@H](COCc3ccccc3)O[C@@H]2c2cc(C(C)(C)C)ccc21 (some centres not stated),IC50,Plasmodium falciparum [6],900 nM
CCCc1nc(C)c2c(=O)[nH]c(-c3cc(S(=O)(=O)N4CCS(=N)(=O)CC4)ccc3OCC)nn12,IC50,[11],0.025 nM
same,efflux ratio,in vitro [12],288
same,"Papp A→B at 2 h, 2 µM",in vitro [1],0.71 ×10⁻⁶ cm/s
COc1cc(F)ccc1-c1cc(Nc2cc(C[S@@](C)(=N)=O)ccn2)ncc1F,IC50,[13],2920 nM
C[C@H](CO)Nc1nc(Nc2ccc(S(N)(=O)=O)cc2)ncc1Br.Cl,IC50,Carbonic anhydrase 2,514 nM
same,solubility thermodynamic,physchem [3],8 µg/mL
same,IC50,[4],34 nM
CS(=O)(=NS(=O)(=O)c1ccccc1)n1cc2c(n1)CN([C@H]1CO[C@H](c3cc(F)ccc3F)[C@@H](N)C1)C2 (some centres not stated),IC50,Dipeptidyl peptidase 4,18 nM
C[C@]12CC[C@@H]3c4ccc(O)cc4C[C@@H](CCCCCCCCC[S@@](=N)(=O)CCCC(F)(F)C(F)(F)F)[C@H]3[C@@H]1CC[C@@H]2O,IC50,Estrogen receptor,1.8 nM
N=S(=O)(NC(=O)c1ccc(Cl)cc1Cl)c1ccc(Br)s1 (configuration not stated),growth at 25 µM,A-375,40%
COc1cc(F)ccc1-c1nc(Nc2cc(F)cc(CS(C)(=N)=N)c2)ncc1F,solubility thermodynamic at 24 h,physchem [14],91 µg/mL
CCCCCCCCCCCS(=O)(=NCc1cn(Cc2ccccc2)nn1)c1ccccc1 (configuration not stated),IC50,Plasmodium falciparum [15],6600 nM
C=C1/C(=C\C=C2/CCC[C@]3(C)C([C@H](C)/C=C/S(=O)(=O)C(C)(C)C)=CC[C@@H]23)C[C@@H](O)C[C@@H]1O,IC50,[16],27 nM
"Cc1cc(C#N)cnc1C(=O)Nc1ccc(F)c([C@]2(C)CS(=O)(=NCC(F)(F)F)N(C)C(N)=N2)c1 (single isomer, unassigned)",IC50,Beta-secretase 1,0.99 nM
"CN=S1(=O)C[C@@](C)(c2cc(NC(=O)c3ncc(C#N)cc3C)ccc2F)N=C(N)N1CC(F)(F)F (single isomer, unassigned)",IC50,Beta-secretase 1,0.59 nM
"N#Cc1ccc(C(=O)Nc2ccc(F)c([C@]3(CF)CS4(=O)=NCCCCN4C(N)=N3)c2)nc1 (single isomer, unassigned)",IC50,Beta-secretase 1,28 nM
"C[C@@]1(c2cc(NC(=O)c3cnc(C#N)cn3)ccc2F)CS2(=O)=NCC(F)(F)CN2C(N)=N1 (single isomer, unassigned)",IC50,Beta-secretase 1,2 nM
O=C(NC1CCNCC1)c1n[nH]cc1NC(=O)c1c(Cl)cccc1Cl [AT-7519],CLH,[9],29.3 mL/min/kg
same,CLH,[10],4 mL/min/kg
COc1cc(F)ccc1-c1ncnc(Nc2cccc(C[S@](C)(=N)=O)c2)n1 [ATUVECICLIB],solubility thermodynamic at 24 h,physchem [5],479 µg/mL
same,IC50,HeLa,1500 nM
O=C([O-])c1cc(=O)c2c(OCC(O)COc3cccc4oc(C(=O)[O-])cc(=O)c34)cccc2o1.[Na+].[Na+] [CROMOLYN SODIUM],ED50,Rattus norvegicus [2],1.21 mg/kg
CCc1ccc(N(CC(C)C)S(=O)(=O)c2ccc(OCC3CCOCC3)c(CO)c2)cc1 [GSK2981278],IC50,[17],3.2 nM
CCCCCCc1cc(S(C)(=N)=O)cc2c(=O)c3cc(C(=O)O)ccc3oc12 (configuration not stated) [SUDEXANOX],ED50,Rattus norvegicus [18],0.19 mg/kg
